From US20230181677A1, “POLYPEPTIDE FOR PROMOTING BONE REGENERATION OR BONE FORMATION AND ITS USE” (SEWON BIOTECHNOLOGY INC., priority 2016, published 2023)
Where no end group is shown, it is not given here.

Assays:
[1] = test system: undifferentiated stem cells; assay: ALP activity of undifferentiated stem cells cultured on titanium disk (osteocyte differentiation); assay type: cell-based; conditions: peptide 10 μM, 6 hours then osteoblast differentiation medium 48 hours, versus control (C)
Description: As described above, on the surface of hard structures such as bones or on the surface where cells are difficult to attach to, the peptide of the present invention can promotes the cell adhesion which is a key mechanism for the regeneration. […] Therefore, in this Example, various adhesive peptides developed and disclosed in the present disclosure were used to test their activity for promoting the osteocyte differentiation. For this, each peptide was mixed with undifferentiated stem cells, which was then cultured on a titanium osteoconductive surface, and analyzed the cells for the differentiation into osteocytes. Two×10^4 cells/ml treated with trypsin and mixed with peptide (10 μM) were cultured on a dental titanium disk having a diameter of 10 mm in size for 6 hours, after which the medium was replaced with osteoblast differentiation medium and the cells were cultured for 48 hours. Then the discs were recovered and the cells were lysed and ALP (Alkaline phosphatase) activity was measured.

[2] = test system: femur muscle of mouse; assay: ectopic ossification analysis, ACS graft in femur muscle, micro-CT; assay type: in vivo; conditions: BMP-2 2 μg left femur, peptide 600 μg right femur; n=10; eight weeks after operation
Description: Eight weeks after the operation, animals were euthanized and micro-CT analysis was performed to observe calcification (ectopic ossification) in the muscle. All 10 animals were used.

| Substance | ALP (Alkaline phosphatase) activity [1] | ectopic ossification (calcification in the muscle), micro-CT [2] |
| --- | --- | --- |
| (R) 15-QLVVKFRALPC (RRRRRRRRRRRRRRRQLVVKFRALPC) [SEQ ID NO: 41, peptide positively charged at the N-terminus containing 15 arginine residues] | highest ALP activity | – |
| RQLVVKFRALPC [present peptide] | – | no ectopic ossification in all the mice treated |
